In patent US4333934A, “Imidazoquinoxalines and pyrroloquinoxalines” (Roussel Uclaf, priority 1979, dated 1982):
Where a name gives a salt, the structure may show the parent alone. Read-outs that look alike come from different tables or passages of the source.

Tests used:
[1] = system: Passive cutaneous anaphylaxis (PCA) in rats; assay: Passive cutaneous anaphylaxis (PCA) in rats; type: in vivo, rat; settings: for ED50: Rattus norvegicus
Excerpt: Cutaneous anaphylaxis was induced in groups of male rats weighing 180-220 g by intradermal (ID) sensitization with antiserum followed three days later by systemic challenge with antigen. Evans blue dye injected with the antigen was used as a marker to assess the severity of the local response. Anti-allergic drugs inhibit this reaction and this method is described by OVARY [(1962) in "Passive cutaneous Anaphylaxis in Allergology" 358-367 Ed. Brown: Pergamon Press:].
1. Wash 120 grams Al (OH)3 gel in 140 ml of saline (use of a macerater facilitates mixing).
2. Centrifuge at 3,000 r.p.m. for about 10 minutes.
3. Resuspend the precipitate with 300 ml of albumen egg powder (1.3 mg/ml) in saline and allow to stand for 30 minutes.
4. Centrifuge at 3,000 r.p.m. for 10 minutes.
5. Weigh the wet precipitate and to each gram weight, add 1 ml of saline. Store in refrigerator. (Quantity sufficient for 60 rats for a 3 day sensitization programme).
1. 1 ml of the alum precipitated ovalbumen was injected subcutaneously into 180-220 gram rats on days 0,2,4.
2. The rats were bled on day 14 either by cardiac puncture or via the dorsal abdominal aorta.
3. Equal quantities of serum from each animal were pooled and thoroughly mixed.
4. 2 ml aliquots were stored at -20° C. in plastic tubes.
The antiserum for sensitization was diluted so that an ID injection of 0.1 ml into control animals gave an average score of a single spot of between 2.0-3.5 using a 5 point scoring system (0,1,2,3,4).
Rats were anaesthetised with Nembutal (40-60 mg/kg i.p.) and were then sensitized by four ID injections (0.1 ml each) on shaved backs. The animals were then left for a period of three days to develop sensitization.
The sensitized rats were dosed orally or intraveneously with the drug immediately prior to intraveneous challenge via the superficial penile vein with 1 ml of an antigen/Evans blue mixture (1 mg albumen egg powder in 0.5 ml saline plus 0.5 ml of 1% Evans blue). The injections were speeded up by using an automatic 1 ml self-filling glass syringe. The "challenged" rats were killed after 30 minutes, (usually pithed) and their skin on the dorsal surface was removed. The degree and area of blueing, proportional to the anaphylactic reaction was assessed on a five point scoring system.
1. Total scores for sites 1,2,3 and 4=X
2. Mean value of X for each group=X

[2] = Solubility remark (footnote of Table 1); type: physicochemical; settings: all solvents
[3] = po, read-out: ED50 (dose of drug giving 50% inhibition), p.o., dosed immediately prior to intravenous antigen challenge, male rats
[4] = iv, read-out: ED50 (dose of drug giving 50% inhibition), i.v., dosed immediately prior to intravenous antigen challenge, male rats

| solubility (in words) [2] | SMILES | ED50 [1, 3] | ED50 (dose of drug giving 50% inhibition), p.o. ([1]; p.o., dosed immediately prior to intravenous antigen challenge, male rats) | ED50 [1, 4] |
| --- | --- | --- | --- | --- |
|  | c1ccc2c(c1)ncc1nc(-c3nnn[nH]3)cn12 [3 (as hydrochloride), 2-(1H-tetrazol-5-yl)-imidazo-[1,2-a]-quinoxaline] | 0.084 mg/kg | 0.089 mg/kg |  |
|  | COc1ccc2ccc3nc(C=O)cn3c2c1 [Example 13] | 0.4 mg/kg |  | 0.12 mg/kg |
|  | CCn1c(=O)c2cc(CO)cn2c2ccccc21 [Example 24, 5-ethyl-2-hydroxymethyl-pyrrolo-[1,2-a]-quinoxaline-4(5H)-one] | 0.045 mg/kg |  |  |
|  | CCn1c(=O)c2nc(C=O)cn2c2ccccc21 [Example 22, 4,5-dihydro-5-ethyl-4-oxo-imidazo-[1,2-a]-quinoxaline-2-carboxaldehyde] | 0.077 mg/kg |  |  |
|  | COc1ccc2ccc3nc(CO)cn3c2c1 [Example 12] | 0.24 mg/kg |  | 0.27 mg/kg |
|  | O=Cc1cn2c(ccc3ccccc32)n1 [Example 6, Imidazo-[1,2-a]-quinoline-2-carboxaldehyde] | 0.09 mg/kg |  |  |
|  | COc1ccc2ccc3nc(CN)cn3c2c1 [Example 15] |  |  | 3.39 mg/kg |
|  | c1ccc2c(c1)OCc1nc(-c3nnn[nH]3)cn1-2 [Example 30, 4H-2-(1H-tetrazol-5-yl)-imidazo-[2,1-c][1,4]-benzoxazine] |  |  | 0.33 mg/kg |
| extremely insoluble in all solvents | Clc1ccc2c(Cl)cc3nc(-c4nnn[nH]4)cn3c2c1 [11 Step C] |  |  |  |
|  | NCc1cn2c(ccc3ccccc32)n1 [Example 8, Imidazo-[1,2-a]-quinoline-2-methanamine dihydrochloride] | 0.98 mg/kg |  | 0.11 mg/kg |
|  | CCn1c(=O)c2cc(-c3nnn[nH]3)cn2c2ccccc21 [Example 26, 5-ethyl-2-(1H-tetrazol-5-yl)-pyrrolo-[1,2-a]-quinoxaline-4(5H)-one] | 0.439 mg/kg |  | 0.011 mg/kg |
|  | OCc1cn2c(ccc3ccccc32)n1 [Example 5, Imidazo-[1,2-a]-quinoline-2-methanol] | 0.36 mg/kg |  |  |
|  | c1ccc2c(c1)ccc1nc(-c3nnn[nH]3)cn12 [Example 7, 2-(1H-tetrazol-5-yl)-imidazo-[1,2-a]-quinoline] | 0.105 mg/kg |  | 0.026 mg/kg |
|  | OCc1cn2c(cnc3ccccc32)n1 [2 (as hydrochloride), Imidazo-[1,2-a]-quinoxaline-2-methanol] | 0.068 mg/kg |  | 0.16 mg/kg |
|  | CCn1c(=O)c2nc(CO)cn2c2ccccc21 [Example 21, 5-ethyl-2-hydroxymethyl-imidazo-[1,2-a]-quinoxaline-4-(5H)-one] | 0.062 mg/kg |  |  |
|  | COc1ccc2ccc3nc(-c4nnn[nH]4)cn3c2c1 [Example 14, 8-methoxy-2-(1H-tetrazol-5-yl)-imidazo-[1,2-a]-quinoline] | 0.12 mg/kg |  | 0.01 mg/kg |
